Reference: patent publication US5756478A, “Method for reducing toxicity of D-nucleoside analogs with L-nucleosides” (priority 1996, dated 1998)
Several values for one entry are separate records, joined by “and”; a condition that tells them apart may be missing. Equal entries are not always repeated. Entries after “also recorded” stand apart in the source; their conditions may differ. Where two headings read alike, the source gives them in different places. Values belong to the compound of their own block, whether it stands above or below them.

Columns and labels:
Assay type in all cases: cell-based
[1] = test system: CEM, a Human T-type lymphoblast tumor cell line; experiment: Cell growth inhibition of CEM cells by D-nucleosides with or without L-nucleosides
Excerpt: CEM, a Human T-type lymphoblast tumor cell line was used for this study. […] At the end of four days after the addition of the drug, the cell number was estimated by hemocytometer. […] The data, presented below in Table 1-3, are normalized against the control. The parenthetical values represent the expected effect the combined agents should have on cell growth.

HIV-1IIIB [2] = experiment: Anti-HIV combination of D- and L-nucleosides in HIV-1IIIB infected MT-2 cells (isobolograms); settings: for Nature of the anti-HIV combination effect with L-nucleosides (ID50): D-nucleoside co-administered with β-L-FddC, L(-)FTC, L(-)SddC or β-L-Fd4C; for Effect of L-nucleoside on ID50 of co-administered D-nucleoside: with AZT, D4T, ddC or DDI
Experimental: (§1) The following anti-HIV drugs were tested in combination with the L-nucleosides β-L-5-fluoro-2',b 3'-dideoxycytidine [β-L-FddC or L(-)FddC], β-L-5-fluoro-2',3'-dideoxy-2',3'-didehydrocytidine [β-L-Fd4C or L(-)Fd4C], β-L-5-fluoro-2',3'-dideoxy-3'-thiacytidine [L(-)FTC] and β-L-2',3'-dideoxy-3'-thiacytidine [L(-)SddC or 3TC]: 3'-azido-3'deoxythymidine (AZT) as well as the β-D-2',3'-dideoxynucleosides, for example, β-D-2',3'-dideoxycytidine (ddC), β-D-2',3'-dideoxyadenosine, β-D-2',3'-dideoxyinosine (DDI) and β-D-2',3'-didehydro-3'-deoxy-thymidine (D4T). β-L-FddC and β-L-Fd4C was obtained following the method of Lin, et al., J. Med. Chem., 37, no. 6 (1994). L(-)FTC and L(-)SddC were prepared by standard literature procedures. See, for example, Jeong, et al. J. Med. Chem., 36, 181 (1993). AZT was obtained from Sigma Chemical Co., St. Louis, Mo., USA. ddC was obtained from Aldrich Chemical Co., Milwaukke, Wis. USA. DDI and D4T were obtained from Bristol-Myers Co., Wallingford, Conn., USA.
(§2) The above-mentioned drugs were tested using MT-2 cells infected with HIV-1IIIB as described by JW Mellers, et al., Molecular Pharm. 41, 446-451 (1991) with some modification. Briefly, triplicate wells of 96-well plates containing 1×10^4 MT-2 cells were infected with HIV-1IIIB at a multiplicity of infection (MOI) of 0.1 TCID50 per cell (TCID50 - 50% tissue culture infective dose). Serial dilutions of drug were added immediately after infection. Cell viability was quantitated 5 days after infection by the MTT-dye reduction model (Larder, et al. Antimicrob. Agents Chemother. 34, 436-441, 1990). The percentage of protection was calculated with the formula [(a-b/c-b)×100], in which a=the A595 of drug-treated, virus-infected well, b=A595 of no-drug infected wells, and c=A595 of no-drug, uninfected wells.
Isobolograms (FIGS. 1-2) were plotted as the percent change in the ID50 of β-L-FddC (L(-)FddC), L(-)FTC, L(-)SddC (FIGS. 1 and 2) β-L-Fd4C (L(-)Fd4C) at various concentrations in combination with AZT, D4T, ddC or DDI at varying concentations on the x-axis and vice versa on the y-axis. Isobolograms (FIG. 3) were plotted as the percent change in the ID50 of β-L-Fd4C (L(-)Fd4C) at various concentrations in combination with AZT or D4T at varying concentrations on the x-axis and vice-versa on the y-axis.

HIV-1IIIB [3] = experiment: Anti-HIV activity: protection of MT-2 cells infected with HIV-1IIIB (MTT-dye reduction); settings: Human immunodeficiency virus 1, MT2, 120 h
Experimental: as §1, §2

[4] = 50 uM, in combination with 1 uM 3TC
[5] = 50 uM, in combination with 1 uM (-) FTC
[6] = 50 uM, in combination with 1 uM β-L-FddC
[7] = Homo sapiens, CCRF-CEM, 96 h, single agent, 50 uM, day 4, read-out: Day 4 Cell Growth - % of Control
[8] = MT-2 cells, HIV-1IIIB, MOI 0.1 TCID50 per cell, 5 days, read-out: ID50 (the source's name)

Compound: Cc1cn([C@H]2C[C@H](N=[N+]=[N-])[C@@H](CO)O2)c(=O)[nH]c1=O [AZT, 3'-azido-3'deoxythymidine]
Day 4 Cell Growth - % of Control ([1]; 0.5 uM, in combination with 1 uM 3TC): 83 % of Control
Day 4 Cell Growth - % of Control ([1]; 0.5 uM, in combination with 1 uM (-) FTC): 87 % of Control
Day 4 Cell Growth - % of Control ([1]; 0.5 uM, in combination with 1 uM β-L-FddC): 80 % of Control
Day 4 Cell Growth - % of Control ([1]; 5.0 uM, in combination with 1 uM 3TC): 76 % of Control
Day 4 Cell Growth - % of Control ([1]; 5.0 uM, in combination with 1 uM (-) FTC): 83 % of Control
Day 4 Cell Growth - % of Control ([1]; 5.0 uM, in combination with 1 uM β-L-FddC): 79 % of Control
Day 4 Cell Growth - % of Control [1, 4]: 70 % of Control
Day 4 Cell Growth - % of Control [1, 5]: 64 % of Control
Day 4 Cell Growth - % of Control [1, 6]: 75 % of Control
activity at 0.5 µM ([1]; Homo sapiens, CCRF-CEM, 96 h, single agent, 0.5 uM, day 4, read-out: Day 4 Cell Growth - % of Control): 91%
activity at 5 µM ([1]; Homo sapiens, CCRF-CEM, 96 h, single agent, 5.0 uM, day 4, read-out: Day 4 Cell Growth - % of Control): 89%
activity at 50 µM [1, 7]: 74%
Day 4 Cell Growth - % of Control, expected effect of the combined agents (parenthetical) ([1]; 0.5 uM with 1 uM β-L-FddC): 76 % of Control
Day 4 Cell Growth - % of Control, expected effect of the combined agents (parenthetical) ([1]; 5.0 uM with 1 uM β-L-FddC): 75 % of Control
Day 4 Cell Growth - % of Control, expected effect of the combined agents (parenthetical) ([1]; 50 uM with 1 uM β-L-FddC): 62 % of Control
Day 4 Cell Growth - % of Control ([1]; single agent, 0.5 uM, 5760 min): 82 % of Control and 85 % of Control
Day 4 Cell Growth - % of Control ([1]; single agent, 5.0 uM, 5760 min): 79 % of Control
Day 4 Cell Growth - % of Control ([1]; single agent, 50 uM, 5760 min): 72 % of Control
Nature of the anti-HIV combination effect with L-nucleosides (ID50) (HIV-1IIIB [2]): synergistically; also recorded: synergistic
IC50 (HIV-1IIIB [3]; read-out: ID50): 90 nM

Compound: Cc1cn([C@H]2C=C[C@@H](CO)O2)c(=O)[nH]c1=O [D4T, β-D-2',3'-didehydro-3'-deoxy-thymidine]
Day 4 Cell Growth - % of Control ([1]; 0.3 uM, in combination with 1 uM 3TC): 94 % of Control
Day 4 Cell Growth - % of Control ([1]; 0.3 uM, in combination with 1 uM (-) FTC): 84 % of Control
Day 4 Cell Growth - % of Control ([1]; 0.3 uM, in combination with 1 uM β-L-FddC): 86 % of Control
Day 4 Cell Growth - % of Control ([1]; 3.0 uM, in combination with 1 uM 3TC): 86 % of Control
Day 4 Cell Growth - % of Control ([1]; 3.0 uM, in combination with 1 uM (-) FTC): 75 % of Control
Day 4 Cell Growth - % of Control ([1]; 3.0 uM, in combination with 1 uM β-L-FddC): 75 % of Control
Day 4 Cell Growth - % of Control ([1]; 30 uM, in combination with 1 uM 3TC): 73 % of Control
Day 4 Cell Growth - % of Control ([1]; 30 uM, in combination with 1 uM (-) FTC): 65 % of Control
Day 4 Cell Growth - % of Control ([1]; 30 uM, in combination with 1 uM β-L-FddC): 68 % of Control
activity at 0.3 µM ([1]; Homo sapiens, CCRF-CEM, 96 h, single agent, 0.3 uM, day 4, read-out: Day 4 Cell Growth - % of Control): 98%
activity at 3 µM ([1]; Homo sapiens, CCRF-CEM, 96 h, single agent, 3.0 uM, day 4, read-out: Day 4 Cell Growth - % of Control): 84%
activity at 30 µM ([1]; Homo sapiens, CCRF-CEM, 96 h, single agent, 30 uM, day 4, read-out: Day 4 Cell Growth - % of Control): 70%
Day 4 Cell Growth - % of Control, expected effect of the combined agents (parenthetical) ([1]; 0.3 uM with 1 uM β-L-FddC): 82 % of Control
Day 4 Cell Growth - % of Control, expected effect of the combined agents (parenthetical) ([1]; 3.0 uM with 1 uM β-L-FddC): 71 % of Control
Day 4 Cell Growth - % of Control, expected effect of the combined agents (parenthetical) ([1]; 30 uM with 1 uM β-L-FddC): 59 % of Control
Day 4 Cell Growth - % of Control ([1]; single agent, 0.3 uM, 5760 min): 89 % of Control
Day 4 Cell Growth - % of Control ([1]; single agent, 3.0 uM, 5760 min): 80 % of Control
Day 4 Cell Growth - % of Control ([1]; single agent, 30 uM, 5760 min): 65 % of Control and 64 % of Control
Nature of the anti-HIV combination effect with L-nucleosides (ID50) (HIV-1IIIB [2]): synergistically; also recorded: synergistic
IC50 (HIV-1IIIB [3]; read-out: ID50): 6000 nM

Compound: Nc1nc(=O)n([C@@H]2C=C[C@H](CO)O2)cc1F [β-L-Fd4C, β-L-5-fluoro-2',3'-dideoxy-2',3'-didehydrocytidine]
Effect of L-nucleoside on ID50 of co-administered D-nucleoside (HIV-1IIIB [2]): reduces the ID50 value of AZT, ddC, DDI and D4T; also recorded: decreases the ID50 of a co-administered D-nucleoside and vice versa
IC50 (HIV-1IIIB [3]; [8]): 90 nM

Now from value to compound, other results behind:

IC50 (HIV-1IIIB [3]; [8]): 20000 nM
Compound: O=c1[nH]cnc2c1ncn2C1CCC(CO)O1 [DDI, β-D-2',3'-dideoxyinosine]
Day 4 Cell Growth - % of Control [1, 4]: 89 % of Control
Day 4 Cell Growth - % of Control [1, 5]: 84 % of Control
Day 4 Cell Growth - % of Control [1, 6]: 84 % of Control
Day 4 Cell Growth - % of Control ([1]; 100 uM, in combination with 1 uM 3TC): 87 % of Control
Day 4 Cell Growth - % of Control ([1]; 100 uM, in combination with 1 uM (-) FTC): 80 % of Control
Day 4 Cell Growth - % of Control ([1]; 100 uM, in combination with 1 uM β-L-FddC): 80 % of Control
Day 4 Cell Growth - % of Control ([1]; 200 uM, in combination with 1 uM 3TC): 80 % of Control
Day 4 Cell Growth - % of Control ([1]; 200 uM, in combination with 1 uM (-) FTC): 75 % of Control
Day 4 Cell Growth - % of Control ([1]; 200 uM, in combination with 1 uM β-L-FddC): 75 % of Control
activity at 50 µM [1, 7]: 88%
activity at 100 µM ([1]; Homo sapiens, CCRF-CEM, 96 h, single agent, 100 uM, day 4, read-out: Day 4 Cell Growth - % of Control): 85%
activity at 200 µM ([1]; Homo sapiens, CCRF-CEM, 96 h, single agent, 200 uM, day 4, read-out: Day 4 Cell Growth - % of Control): 78%
Day 4 Cell Growth - % of Control, expected effect of the combined agents (parenthetical) ([1]; 50 uM with 1 uM (-) FTC): 74 % of Control
Day 4 Cell Growth - % of Control, expected effect of the combined agents (parenthetical) ([1]; 50 uM with 1 uM β-L-FddC): 74 % of Control
Day 4 Cell Growth - % of Control, expected effect of the combined agents (parenthetical) ([1]; 100 uM with 1 uM (-) FTC): 71 % of Control
Day 4 Cell Growth - % of Control, expected effect of the combined agents (parenthetical) ([1]; 100 uM with 1 uM β-L-FddC): 71 % of Control
Day 4 Cell Growth - % of Control, expected effect of the combined agents (parenthetical) ([1]; 200 uM with 1 uM (-) FTC): 65 % of Control
Day 4 Cell Growth - % of Control, expected effect of the combined agents (parenthetical) ([1]; 200 uM with 1 uM β-L-FddC): 65 % of Control
Day 4 Cell Growth - % of Control ([1]; single agent, 50 uM, 5760 min): 94 % of Control
Day 4 Cell Growth - % of Control ([1]; single agent, 100 uM, 5760 min): 89 % of Control
Day 4 Cell Growth - % of Control ([1]; single agent, 200 uM, 5760 min): 79 % of Control
Nature of the anti-HIV combination effect with L-nucleosides (ID50) (HIV-1IIIB [2]): additively; also recorded: additive

IC50 (HIV-1IIIB [3]; MT-2 cells, HIV-1IIIB, MOI 0.1 TCID50 per cell, 5 days, unit inferred, read-out: ID50 (the source's name)): 3000 nM
Compound: Nc1ccn([C@@H]2CS[C@H](CO)O2)c(=O)n1 [L(-)SddC, β-L-2',3'-dideoxy-3'-thiacytidine]
activity at 0.1 µM ([1]; Homo sapiens, CCRF-CEM, 96 h, single agent, 0.1 uM, day 4, read-out: Day 4 Cell Growth - % of Control): 94%
activity at 1 µM ([1]; Homo sapiens, CCRF-CEM, 96 h, single agent, 1.0 uM, day 4, read-out: Day 4 Cell Growth - % of Control): 89%
activity at 10 µM ([1]; Homo sapiens, CCRF-CEM, 96 h, single agent, 10 uM, day 4, read-out: Day 4 Cell Growth - % of Control): 80%
activity at 50 µM [1, 7]: 76%
Effect of L-nucleoside on ID50 of co-administered D-nucleoside (HIV-1IIIB [2]): reduces the ID50 value of AZT, ddC, DDI and D4T; also recorded: decreases the ID50 of a co-administered D-nucleoside and vice versa
